# Earlier results, collected in patent US9597338B2, “Shell-and-core dosage form approaching zero-order drug release” (Depomed, Inc., priority 2000, dated 2017).
# Conditions: oral; doses administered with or following a meal
compound,measurement,value
Cc1c(O)cccc1C(=O)N[C@@H](CSc1ccccc1)[C@H](O)CN1C[C@H]2CCCC[C@H]2C[C@H]1C(=O)NC(C)(C)C [nelfinavir],Area under the plasma concentration-time curve with or following a meal,two to three times greater
same,Peak plasma concentration with or following a meal,two to three times greater
